Active and inactive are the calls of the source. No cut-off for these calls is given here.
What was measured:
[1] = Antiproliferative activity against human hTERT-BJ cells assessed as reduction in cell growth; assay type: toxicity, cell-based
WiDr = assay: Antiproliferative activity against human WiDr cells assessed as reduction in cell growth; assay type: functional
A549 = assay: Antiproliferative activity against human A549 cells assessed as reduction in cell growth; assay type: functional
HeLa = assay: Antiproliferative activity against human HeLa cells assessed as reduction in cell growth; assay type: functional
SW1573 = assay: Antiproliferative activity against human SW1573 cells assessed as reduction in cell growth; assay type: functional
HBL-100 = assay: Antiproliferative activity against human HBL-100 cells assessed as reduction in cell growth; assay type: functional
T47D = assay: Antiproliferative activity against human T47D cells assessed as reduction in cell growth; assay type: functional
NCI-H460 [2] = assay: Cell cycle arrest in human NCI-H460 cells assessed as increase in accumulation at G2/M phase at 600 nM measured after 48 hrs by propidium iodide staining based flow cytometry analysis; assay type: functional
NCI-H460 [3] = assay: Cell cycle arrest in human NCI-H460 cells assessed as increase in accumulation at subG1 phase at 600 nM measured after 48 hrs by propidium iodide staining based flow cytometry analysis; assay type: functional
NCI-H460 [4] = assay: Cell cycle arrest in human NCI-H460 cells assessed as decrease in accumulation at G1 phase at 600 nM measured after 48 hrs by propidium iodide staining based flow cytometry analysis; assay type: functional
NCI-H460 [5] = assay: Antiproliferative activity against human NCI-H460 cells assessed as reduction in cell growth measured after 48 hrs by sulforhodamine B assay; assay type: functional
[6] = Resistant index, ratio of GI50 for human multi-drug resistant NCI-H460/R cells to GI50 for human NCI-H460 cells; assay type: functional
[7] = Antiproliferative activity against human MRC5 cells assessed as reduction in cell growth measured after 48 hrs by sulforhodamine B assay; assay type: toxicity, cell-based
NCI-H460 [8] = assay: Antiproliferative activity against human multi-drug resistant NCI-H460/R cells overexpressing P-glycoprotein assessed as reduction in cell growth measured after 48 hrs by sulforhodamine B assay; assay type: functional
NCI-H460 [9] = assay: Antiproliferative activity against human multi-drug resistant NCI-H460/R cells overexpressing P-glycoprotein assessed as cell growth inhibition in presence of tariquidar measured after 48 hrs by sulforhodamine B assay; assay type: functional; details: dose 0.01-100 µM
NCI-H460 [10] = assay: Induction of mitochondrial membrane potential loss in human NCI-H460 cells assessed as depolarization of mitochondrial membrane at 600 nM incubated for 24 hrs by JC-1 staining based flow cytometry assay; assay type: functional, cell-based
NCI-H460 [11] = assay: Induction of mitochondrial membrane potential loss in human NCI-H460 cells assessed as depolarization of mitochondrial membrane at 600 nM incubated for 48 hrs by JC-1 staining based flow cytometry assay; assay type: functional, cell-based
NCI-H460 [12] = assay: Cell cycle arrest in human NCI-H460 cells assessed as increase in accumulation at S phase at 600 nM measured after 48 hrs by propidium iodide staining based flow cytometry analysis; assay type: functional
NCI-H460 [13] = assay: Induction of apoptosis in human NCI-H460 cells assessed as increase in necrotic cells at 600 nM incubated for 48 hrs by annexin-V-FITC and PI staining based flow cytometry analysis (reference value: 2 %); assay type: functional

SMILES | GI50 [1] [nM] | GI50 (WiDr) [nM] | GI50 (A549) [nM] | GI50 (HeLa) [nM] | GI50 (SW1573) [nM] | GI50 (HBL-100) [nM] | GI50 (T47D) [nM] | Activity (NCI-H460 [2]) | Activity (NCI-H460 [3]) | Activity (NCI-H460 [4]) | GI50 (NCI-H460 [5]) [nM] | RatioGI50 [6] | GI50 at 48 h [7] [nM] | GI50 (NCI-H460 [8]) [nM] | GI50 (NCI-H460 [9]) [nM] | Activity (NCI-H460 [10]) | Activity (NCI-H460 [11]) | Activity (NCI-H460 [12]) | Activity (NCI-H460 [13]) [%]
c1ccc(CCOCCCCCCCCCCCC[P+](c2ccccc2)(c2ccccc2)c2ccccc2)cc1 | 4400 | 260 | 170 | 330 | 250 | 290 | 270 |  |  |  |  |  |  |  |  |  |  |  | 
O=c1[nH]cc(F)c(=O)[nH]1 [FLUOROURACIL] | 5500 | 49000 | 2200 | 16000 | 3300 | 4400 | 43000 |  |  |  |  |  |  |  |  |  |  |  | 
c1ccc(COc2ccc(CCOCCCCCC[P+](c3ccccc3)(c3ccccc3)c3ccccc3)cc2OCc2ccccc2)cc1 | 3300 | 1000 | 250 | 320 | 350 | 470 | 810 |  |  |  |  |  |  |  |  |  |  |  | 
COc1ccc(CCOCCCCC[P+](c2ccccc2)(c2ccccc2)c2ccccc2)cc1 | 28000 | 330 | 400 | 390 | 370 | 520 | 310 |  |  |  |  |  |  |  |  |  |  |  | 
COc1ccc(CCOCCCCCC[P+](c2ccccc2)(c2ccccc2)c2ccccc2)cc1 | 30000 | 230 | 260 | 270 | 220 | 370 | 200 |  |  |  |  |  |  |  |  |  |  |  | 
COc1ccc(CCOCCCCCCCCCCCC[P+](c2ccccc2)(c2ccccc2)c2ccccc2)cc1OC | 4300 | 220 | 26 | 210 | 170 | 260 | 210 |  |  |  |  |  |  |  |  |  |  |  | 
c1ccc(COc2ccc(CCOCCCCC[P+](c3ccccc3)(c3ccccc3)c3ccccc3)cc2OCc2ccccc2)cc1 | 3500 | 310 | 130 | 270 | 230 | 200 | 310 |  |  |  |  |  |  |  |  |  |  |  | 
COc1ccc(CCOCCCCCC[P+](c2ccccc2)(c2ccccc2)c2ccccc2)cc1OC | 34000 | 380 | 740 | 420 | 490 | 550 | 460 |  |  |  |  |  |  |  |  |  |  |  | 
c1ccc(CCOCCCCC[P+](c2ccccc2)(c2ccccc2)c2ccccc2)cc1 | 32000 | 220 | 370 | 310 | 330 | 440 | 220 |  |  |  |  |  |  |  |  |  |  |  | 
c1ccc(COc2ccc(CCOCCCCCCCCCCCC[P+](c3ccccc3)(c3ccccc3)c3ccccc3)cc2OCc2ccccc2)cc1 | 3500 | 450 | 170 | 330 | 320 | 240 | 500 |  |  |  |  |  |  |  |  |  |  |  | 
c1ccc([P+](CCCCCCCCCCCCOCCc2ccc3c(c2)OCO3)(c2ccccc2)c2ccccc2)cc1 | 4600 | 190 | 59 | 220 | 170 | 210 | 180 |  |  |  |  |  |  |  |  |  |  |  | 
COc1ccc(CCOCCCCC[P+](c2ccccc2)(c2ccccc2)c2ccccc2)cc1OC | 57000 | 1500 | 3400 | 2300 | 2100 | 4200 | 2000 |  |  |  |  |  |  |  |  |  |  |  | 
c1ccc(COc2ccc(CCOCCCCCCCCCCCC[P+](c3ccccc3)(c3ccccc3)c3ccccc3)cc2)cc1 | 3300 | 770 | 450 | 600 | 420 | 370 | 570 |  |  |  |  |  |  |  |  |  |  |  | 
c1ccc([P+](CCCCCOCCc2ccc3c(c2)OCO3)(c2ccccc2)c2ccccc2)cc1 | 37000 | 330 | 1400 | 540 | 640 | 680 | 360 |  |  |  |  |  |  |  |  |  |  |  | 
[Br-].c1ccc(CCOCCCCCC[P+](c2ccccc2)(c2ccccc2)c2ccccc2)cc1 | 35000 | 140 | 130 | 170 | 160 | 260 | 140 | Active | Active | Active | 570 | 8.1 | 15300 | 4600 | 610 | Active | Active | Active | 37
c1ccc(COc2ccc(CCOCCCCCC[P+](c3ccccc3)(c3ccccc3)c3ccccc3)cc2)cc1 | 3100 | 240 | 120 | 180 | 120 | 250 | 200 |  |  |  |  |  |  |  |  |  |  |  | 
c1ccc(COc2ccc(CCOCCCCC[P+](c3ccccc3)(c3ccccc3)c3ccccc3)cc2)cc1 | 2900 | 180 | 88 | 77 | 89 | 84 | 190 |  |  |  |  |  |  |  |  |  |  |  | 
[Br-].c1ccc([P+](CCCCCCOCCc2ccc3c(c2)OCO3)(c2ccccc2)c2ccccc2)cc1 | 43000 | 240 | 870 | 350 | 350 | 580 | 270 | Active | Active | Active | 600 | 6 | 62700 | 3600 | 590 | Active | Active | Active | 27
COc1ccc(CCOCCCCCCCCCCCC[P+](c2ccccc2)(c2ccccc2)c2ccccc2)cc1 | 3600 | 320 | 180 | 320 | 250 | 340 | 290 |  |  |  |  |  |  |  |  |  |  |  | 
